Test results reported in the supplement of paper PMC10307832.

Assays:
Test in all cases: relative viability (nuclei count vs DMSO), 5 days (fraction); higher = more cells survive
BI-D1870 + Decitabine = compound: CC(C)CCN1c2nc(Nc3cc(F)c(O)c(F)c3)ncc2N(C)C(=O)C1C [BI-D1870] + Nc1ncn([C@H]2C[C@H](O)[C@@H](CO)O2)c(=O)n1 [Decitabine] (partner 2 µM)
Summary of the method: (§1)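 The day after seeding in 1536-well plates, lung cancer cell lines were treated by pin tool with a single drug, or with a fixed anchor-drug dose together with five library-drug doses (not always all listed) in √10 steps. After 5 days, a combined fix-and-stain solution (final 0.05% Triton X-100, 1% formaldehyde, 1 ug/ml Hoechst) was added. Nuclei counted on 4× images gave relative viability as treated counts over vehicle counts, reported as the median of duplicate plates.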

Zebularine + Linsitinib = compound: O=c1ncccn1[C@@H]1O[C@H](CO)[C@@H](O)[C@H]1O [Zebularine] + C[C@]1(O)C[C@@H](c2nc(-c3ccc4ccc(-c5ccccc5)nc4c3)c3c(N)nccn32)C1 [Linsitinib] (partner 1 µM)
Summary of the method: as §1

BI-D1870 + Phenformin = compound: CC(C)CCN1c2nc(Nc3cc(F)c(O)c(F)c3)ncc2N(C)C(=O)C1C [BI-D1870] + N=C(N)NC(=N)NCCc1ccccc1 [Phenformin] (partner 250 µM)
Summary of the method: as §1

BI-D1870 + Luminespib = compound: CC(C)CCN1c2nc(Nc3cc(F)c(O)c(F)c3)ncc2N(C)C(=O)C1C [BI-D1870] + CCNC(=O)c1noc(-c2cc(C(C)C)c(O)cc2O)c1-c1ccc(CN2CCOCC2)cc1 [Luminespib] (partner 0.01 µM)
Summary of the method: as §1

Cell Line | relative viability (BI-D1870 + Decitabine; first compound 0.04 µM) | relative viability (BI-D1870 + Decitabine; first compound 0.1265 µM) | relative viability (BI-D1870 + Decitabine; first compound 0.4 µM) | relative viability (BI-D1870 + Decitabine; first compound 1.265 µM) | relative viability (BI-D1870 + Decitabine; first compound 4 µM) | relative viability (Zebularine + Linsitinib; first compound 1 µM) | relative viability (Zebularine + Linsitinib; first compound 3.162 µM) | relative viability (Zebularine + Linsitinib; first compound 10 µM) | relative viability (Zebularine + Linsitinib; first compound 31.62 µM) | relative viability (Zebularine + Linsitinib; first compound 100 µM) | relative viability (BI-D1870 + Phenformin; first compound 0.04 µM) | relative viability (BI-D1870 + Phenformin; first compound 0.1265 µM) | relative viability (BI-D1870 + Phenformin; first compound 0.4 µM) | relative viability (BI-D1870 + Phenformin; first compound 1.265 µM) | relative viability (BI-D1870 + Phenformin; first compound 4 µM) | relative viability (BI-D1870 + Luminespib; first compound 0.04 µM) | relative viability (BI-D1870 + Luminespib; first compound 0.1265 µM) | relative viability (BI-D1870 + Luminespib; first compound 0.4 µM) | relative viability (BI-D1870 + Luminespib; first compound 1.265 µM) | relative viability (BI-D1870 + Luminespib; first compound 4 µM)
NCI-H3122 | 0.51 | 0.333 | 0.478 | 0.427 | 0.508 | 1.13 | 1.09 | 0.848 | 1.06 | 1.04 | 0.362 | 0.354 | 0.383 | 0.39 | 0.346 | 0.0791 | 0.0919 | 0.0942 | 0.11 | 0.124
NCI-H1975 | 0.436 | 0.348 | 0.411 | 0.361 | 0.368 | 1.01 | 0.861 | 0.582 | 0.456 | 0.271 | 0.4 | 0.37 | 0.422 | 0.426 | 0.313 | 0.27 | 0.101 | 0.308 | 0.257 | 0.208
NCI-H1944 | 0.435 | 0.415 | 0.388 | 0.508 | 0.432 | 1.34 | 1.14 | 0.979 | 1.19 | 0.784 | 0.218 | 0.185 | 0.184 | 0.237 | 0.205 | 0.841 | 0.691 | 0.669 | 0.879 | 0.763
LU99A | 0.883 | 0.814 | 0.898 | 0.837 | 0.725 | 0.66 | 0.529 | 0.437 | 0.344 | 0.169 | 1.05 | 0.804 | 0.799 | 0.634 | 0.72 | 0.263 | 0.223 | 0.276 | 0.258 | 0.229
SW 1573 | 0.653 | 0.497 | 0.473 | 0.372 | 0.26 | 0.762 | 0.851 | 0.533 | 0.779 | 0.406 | 0.487 | 0.212 | 0.308 | 0.394 | 0.144 | 0.219 | 0.172 | 0.297 | 0.191 | 0.143
NCI-H2347 | 0.671 | 0.656 | 0.619 | 0.657 | 0.627 | 1.04 | 0.99 | 0.854 | 0.724 | 0.478 | 0.67 | 0.377 | 0.405 | 0.443 | 0.406 | 0.738 | 0.376 | 0.367 | 0.48 | 0.402
NCI-H2009 | 0.379 | 0.366 | 0.394 | 0.397 | 0.3 | 1.17 | 1.15 | 1.03 | 0.984 | 0.386 | 0.546 | 0.457 | 0.456 | 0.329 | 0.222 | 1.1 | 1.01 | 0.93 | 0.999 | 0.59
HCC-15 | 0.674 | 0.623 | 0.627 | 0.72 | 0.465 | 0.983 | 0.883 | 0.615 | 0.773 | 0.251 | 0.56 | 0.468 | 0.417 | 0.426 | 0.394 | 0.314 | 0.205 | 0.332 | 0.34 | 0.344
HCC-44 | 0.987 | 0.973 | 0.96 | 1.03 | 1.04 | 0.77 | 0.655 | 0.466 | 0.577 | 0.218 | 0.315 | 0.211 | 0.186 | 0.256 | 0.232 | 1.46 | 1 | 0.986 | 1.26 | 0.695
COR-L23 | 0.445 | 0.402 | 0.508 | 0.526 | 0.405 | 0.977 | 1.05 | 0.448 | 0.493 | 0.211 | 0.461 | 0.438 | 0.499 | 0.407 | 0.324 | 0.812 | 0.524 | 0.587 | 0.875 | 0.504
NCI-H727 | 1.02 | 0.883 | 0.909 | 0.921 | 1.01 | 0.3 | 0.3 | 0.286 | 0.365 | 0.203 | 0.53 | 0.614 | 0.587 | 0.712 | 0.462 | 0.235 | 0.354 | 0.302 | 0.332 | 0.314
NCI-H2087 | 0.259 | 0.28 | 0.307 | 0.342 | 0.38 | 1.11 | 1.09 | 0.501 | 0.67 | 0.29 | 0.512 | 0.532 | 0.486 | 0.536 | 0.459 | 0.165 | 0.18 | 0.206 | 0.213 | 0.186
BEN | 0.748 | 0.617 | 0.733 | 0.738 | 0.844 | 0.911 | 0.777 | 0.432 | 0.384 | 0.308 | 0.272 | 0.29 | 0.273 | 0.314 | 0.243 | 0.409 | 0.358 | 0.441 | 0.356 | 0.35
LCLC-103H | 0.706 | 0.588 | 0.723 | 0.804 | 0.678 | 1.17 | 1.24 | 0.87 | 1 | 0.945 | 0.376 | 0.301 | 0.316 | 0.36 | 0.324 | 0.989 | 0.753 | 0.888 | 1.07 | 0.934
EKVX | 0.328 | 0.309 | 0.374 | 0.436 | 0.39 | 1.16 | 1.01 |  | 1.15 | 0.979 | 0.243 | 0.214 | 0.23 | 0.21 | 0.18 | 0.836 | 0.819 | 0.879 | 0.993 | 0.792
LXF-289 | 0.35 | 0.382 | 0.372 | 0.411 | 0.416 | 1.08 | 0.977 | 0.96 | 0.78 | 0.289 | 0.561 | 0.493 | 0.491 | 0.529 | 0.451 | 0.809 | 0.607 | 0.674 | 0.74 | 0.533
